Measured values reported in PubChem BioAssay AID2060484 (Molecular Pharmacology Branch, DTP, NCI, 2025).
Several values for one entry are separate records, joined by “and”; a condition that tells them apart may be missing. Equal values may be shown once.

Test system: SUM149PT spheroids with HUVEC/MSC, viability
Assay: Anticancer human tumor SUM149PT cell line growth inhibition [GQUAD];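 also: spheroids exposed to drugs for seven days before readout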;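 as to viability, T/C: percent viability relative to DMSO vehicle control taken as 100%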
Conditions: for viability, T/C: stronger effect = lower value
Description: DNA G-quadruplex Stabilizer Agents in Combinations in Complex Spheroids
A high-throughput screen of multi-cell type tumor spheroids was designed to identify active combinations of DNA G-quadruplex stabilizer agents and targeted small molecules. Complex spheroids include a stromal component modeled by human endothelial cells (HUVEC) and fibroblasts modeled by human mesenchymal stem cells (MSCs). The concentration ranges selected for each drug and investigational agent were based upon clinically achievable concentrations if the clinical Cmax of the agent was known.
Compounds. The drugs and investigational agents: pidnarulex (CX-5461; NSC782164), APTO-253 (NSC789042), BRACO-19 (NSC847499), peposertib (NSC802822), ceralasertib (NSC780249), elimusertib (NSC800525), camonsertib (NSC841442), AZD-1390 (NSC803789), olaparib (NSC753686), talazoparib (NSC767125), ART-558 (NSC835418), sotorasib (NSC818433), MRTX-1133 (NSC836407), SN-38 (NSC673596), topotecan (NSC609699), etoposide (NSC141540), doxorubicin (NSC123127), gemcitabine (NSC613327), 5-fluorouracil (NSC19893), paclitaxel (NSC125973), vemurafenib (NSC761431), panobinostat (NSC761190), R-306465 (JNJ-16241199; NSC773264), adavosertib (NSC754352), TP-3654 (NSC805149), carboplatin (NSC241240), KSQ-4279 (NSC840948), and staurosporine (NSC755774) were obtained from the National Cancer Institute (NCI) Developmental Therapeutics Program Chemical Repository (34). The FDA-approved anticancer drug set is available from the NCI Developmental Therapeutics Program. […] The stock solutions were prepared in dimethyl sulfoxide (DMSO, Sigma-Aldrich, St. Louis, MO, cat. D2650) at 800-fold the tested concentration and stored at -70 degrees C prior to their use. All drugs and investigational agents were tested over a range starting from a high concentration at or near the clinical Cmax and decreasing in half-log increments. If the clinical Cmax for an agent had not been determined, the highest concentration tested was 10 microM.
2.3 Cell Culture. All cells were maintained in an incubator at 37 degrees C and 5% CO2 with 95% humidity. The PDC lines were cultured according to standard operating procedures established by the NCI PDMR. All PDCs were thawed and cultured in Matrigel-coated flasks prepared with a working solution of 1X Ham's F-12 nutrient mix, without supplementation (Invitrogen, cat. 11765054), 100 U/mL penicillin-streptomycin (Invitrogen, cat. 15140122), and 2.5% Matrigel (Corning Inc., cat. 354248) for the first three passages. The 857933-349-R-J2-PDC line was cultured in 6C/Colon 1B media, which includes advanced DMEM/F-12 (Thermo Fisher Scientific, cat. 12634028), 10 mM HEPES (Thermo Fisher Scientific, cat. 15630080), 1X GlutaMAX supplement (Thermo Fisher Scientific, cat. 35050061), 0.1 mg/mL primocin (InvivoGen, cat. ant-pm-2), 10% defined fetal bovine serum, heat inactivated (HyClone Laboratories Inc., cat. SH30070.03HI), 50% L-WRN conditioned media (ATCC, cat. CRL-3276), 1.25 mM N-Acetyl-L-cysteine (Sigma-Aldrich, cat. A9165), 10 mM nicotinamide (Sigma-Aldrich, cat. N0636), 1X B-27 supplement (Thermo Fisher Scientific, cat. 17504044), 1X N-2 supplement (Thermo Fisher Scientific, cat. 17502048), 10 microM Y-27632 dihydrochloride (Tocris Bioscience, cat. 1254), and 50 ng/mL human EGF recombinant protein (Thermo Fisher Scientific, cat. PHG0311). The 485176-168-R4-J1-PDC line was cultured in Panc media, which includes all 6C/Colon 1B media components plus 100 ng/mL human FGF-10 (Thermo Fisher Scientific, cat. 100-26), 500 nM SB-431542 (Selleckchem, cat. S1067), and gastrin (Tocris, cat. 3006).
[…]

[1] = compound alone, run of 03/26/2024

Row | SMILES | viability, T/C (compound 0.0316 µM) | viability, T/C (compound 0.1 µM) | viability, T/C (compound 0.316 µM) | viability, T/C (compound 1 µM) | viability, T/C (compound 3.16 µM) | viability, T/C (compound 10 µM) | IC50 (curve of compound) | IC50 [1] [nM] | IC50 (compound alone, run of 03/18/2024) [nM]
1 | CC1COCCN1c1cc(-c2ccnn2C)c2ccnc(-c3ccn[nH]3)c2n1 (stereo not drawn) | 98.3% and 92.2% and 83.5% | 55.4% and 45.4% and 34.2% | 26% and 26.5% and 18% | 19.7% and 28.9% and 18.2% | 25.6% and 25.3% and 21.7% | 30% and 31.4% and 23.9% | 124 nM and 89.3 nM and 69.2 nM | – | –
2 | Nc1ccn(C2OC(CO)C(O)C2(F)F)c(=O)n1 (stereo not drawn) | 74.9% and 85.4% and 74.1% | 37.6% and 48.4% and 42% | 24.5% and 38.1% and 20.7% | 23.8% and 31.2% and 18.5% | 16.5% (2×) and 24.5% | 15.4% and 24.8% and 17% | 69.3 nM and 108 nM and 75.1 nM | – | –
3 | COc1cc(C2c3cc4c(cc3C(OC3OC5COC(C)OC5C(O)C3O)C3COC(=O)C23)OCO4)cc(OC)c1O (stereo not drawn) | 99.6% and 98.6% and 97.5% | 88.2% and 81.7% (2×) | 55.6% and 52.5% and 61.4% | 49.3% and 48.9% and 58.8% | 36% and 29.3% and 42.2% | 18.6% and 14.3% and 22% | 837 nM and 645 nM and 1340 nM | – | –
4 | CN(C)c1ccc(Nc2c3ccc(NC(=O)CCN4CCCC4)cc3nc3cc(NC(=O)CCN4CCCC4)ccc23)cc1 | 102% [middle of 12 runs] | 101% [middle of 12 runs] | 99.9% [middle of 11 runs] | 90% [middle of 12 runs] | 86.2% [middle of 12 runs] | 86% [middle of 12 runs] | – | > 10000 | –
5 | Cc1[nH]c2ccc(F)cc2c1-c1nc2c3cccnc3c3ncccc3c2[nH]1 | – | 102% [middle of 12 runs] | 104% [middle of 12 runs] | 99% [middle of 12 runs] | – | 98.4% [middle of 12 runs] | – | > 10000 | > 10000
6 | CC(=O)O[C@H]1C(=O)[C@@]2(C)[C@H]([C@H](OC(=O)c3ccccc3)[C@]3(O)C[C@H](OC(=O)[C@H](O)[C@@H](NC(=O)c4ccccc4)c4ccccc4)C(C)=C1C3(C)C)[C@]1(OC(C)=O)CO[C@@H]1C[C@@H]2O | 29.9% and 31.4% and 22.4% | 25.7% and 26.3% and 18.2% | 25.7% and 20.8% and 15.6% | 22.3% and 19.5% and 11.7% | 22.6% and 20.4% and 11% | 26.4% and 22.7% and 16.2% | < 31.6 nM | – | –
7 | O=C(c1cc(Cc2n[nH]c(=O)c3ccccc23)ccc1F)N1CCN(C(=O)C2CC2)CC1 | 92.5% and 110% and 104% | 97.8% and 93.5% and 82.5% | 92.7% and 102% and 99.8% | 108% and 96.9% and 101% | 106% and 108% and 97.4% | 70.6% and 86.7% and 69.7% | > 10000 nM | – | –
